Test system: Haemonchus contortus
Test: In vivo nematode test Haemonchus contortus/sheep
Conditions: sheep infected experimentally with Haemonchus contortus, treated after prepatency period; pure active compound applied orally and/or intravenously; dose at which nematode egg excretion with the faeces stopped completely
Method: In vivo nematode test Haemonchus contortus/sheep
The degree of effectiveness is determined by quantitatively determinating the nematode eggs excreted with the faeces before and after the treatment.

## tert-Butyl-N-Benzyl-N-propyl-L-leucyl-D-lactyl-N-^i -propyl-L-leucyl-D-3-phenyllactyl-N-^i propyl-L-leucyl-D-lactyl-N-^i propyl-L-leucyl-D-3-phenyllactate [Example 2]
  Dosis effectiva: 10 mg/kg
